From US20240400572A1, “COMPOUNDS AND METHODS FOR TREATING CANCERS THAT ARE MGMT DEFICIENT REGARDLESS OF MMR STATUS” (Yale University, priority 2021, published 2024)
Where a name gives a salt, the structure may show the parent alone.

Assays:
Experiment in all cases: Anticancer activity towards LN229 human brain glioblastoma cells (nuclei count after 120 hours)
Format in all cases: cell-based
Conditions in all cases: LN-229, LN229 quad cells, 200 μM to 0.1 uM
[1] = test system: LN229 MGMT− MMR− cells
Protocol: (§1) Exemplary compounds were evaluated for activity against LN229 human brain glioblastoma cells. Experimental procedures and results are provided elsewhere herein.
(§2) LN229 quad cells were maintained in Dulbecco's Modified Eagle Medium (DMEM) supplemented with 10% fetal bovine serum. Cells were plated into sterile black with glass bottom 384-well plates (Cellvis) at a concentration of 1,000 cells/well (20 μL total volume) using a MultiDrop (Thermo Fisher). Then, assay plates were centrifuged at 300 rpm for 2 seconds and incubated overnight in a 37° C. 5% CO2 incubator. Compounds were prepared as 100 mM stocks in DMSO and stored protected from light at −20′C until use. Prior to compound addition, the stock solutions of compound were diluted two-fold serially in DMSO from 100 mM down to 0.05 mM in a 384-well Source plate. Vehicle control wells containing DMSO and positive control wells containing 10 mM bortezomib were also added to the Source plate. An aliquot in the amount of 40 nL of compound stock solution or DMSO vehicle was transferred from the source plate to the cell assay plate using an Echo Acoustic dispense (Beckman). Three replicate dilution curves of each compound were run on each assay plate. An aliquot in the amount of 120 nL of a 10 mM bortezomib solution was transferred to the positive control wells resulting in a final concentration of 60 μM. The final concentration of compounds ranged from 200 μM to 0.1 uM (12-point, 2-fold dilution dose response curve), and the final DMSO concentration was 0.2%.
(§3) Assay plates were centrifuged at 500 rpm for 2 seconds and incubated for 120 hours at 37° C. in a humidified 5% CO2 incubator. Following incubation, cells were fixed with 4% paraformaldehyde and stained with DAPI for nuclei visualization. The images were acquired on the InCell 2200 high content imager (GE, now […]), and quantified using InCell Analyzer image analysis software. Z prime factor, signal-to-background and coefficient of variation were calculated for each assays plate using mean and standard deviation values of the negative (vehicle) and positive (bortezomib) control wells to ensure assay robustness. Raw cell count data for test compounds was normalized to percent viability relative to the DMSO vehicle control. Data was plotted in GraphPad Prism using a variable slope 4-parameter fit.

[2] = test system: LN229 MGMT+ MMR− cells
Protocol: as §1, §2, §3

[3] = test system: LN229 MGMT+ MMR+ cells
Protocol: as §1, §2, §3

[4] = test system: LN229 MGMT− MMR+ cells
Protocol: as §1, §2, §3

SMILES	IC50 [1] [µM]	IC50 [2] [µM]	IC50 [3] [µM]	IC50 [4] [µM]
CCCN(CC)C(=O)c1ncn2c(=O)n(CCF)nnc12 [Compound I-18, N-ethyl-3-(2-fluoroethyl)-4-oxo-N-propyl-3H,4H-imidazo[4,3-d][1,2,3,5]tetrazine-8-carboxamide]	20 to 50	> 80	> 80	> 80
CCCN(CCC)C(=O)c1ncn2c(=O)n(CCF)nnc12 [Compound I-13, 3-(2-fluoroethyl)-4-oxo-N,N-dipropyl-3H,4H-imidazo[4,3-d][1,2,3,5]tetrazine-8-carboxamide]	10 to 20	20 to 50	20 to 50	20 to 50
CN(C)C(=O)c1ncn2c(=O)n(CCF)nnc12 [Compound I-6, 3-(2-fluoroethyl)-N,N-dimethyl-4-oxo-3H,4H-imidazo[4,3-d][1,2,3,5]tetrazine-8-carboxamide]	10 to 20	> 80	> 80	20 to 50
CCCN(C)C(=O)c1ncn2c(=O)n(CCF)nnc12 [Compound I-17, 3-(2-fluoroethyl)-N-methyl-4-oxo-N-propyl-3H,4H-imidazo[4,3-d][1,2,3,5]tetrazine-8-carboxamide]	20 to 50	> 80	> 80	> 80
O=C(NC1CC1)c1ncn2c(=O)n(CCF)nnc12 [Compound I-4, N-cyclopropyl-3-(2-fluoroethyl)-4-oxo-3H,4H-imidazo[4,3-d][1,2,3,5]tetrazine-8-carboxamide]	< 10	> 80	> 80	10 to 20
O=C(NC1CCC1)c1ncn2c(=O)n(CCF)nnc12 [Compound I-5, N-cyclobutyl-3-(2-fluoroethyl)-4-oxo-3H,4H-imidazo[4,3-d][1,2,3,5]tetrazine-8-carboxamide]	< 10	> 80	> 80	10 to 20
O=C(Nc1ccccn1)c1ncn2c(=O)n(CCF)nnc12 [Compound I-8, 3-(2-fluoroethyl)-4-oxo-N-(pyridin-2-yl)-3H,4H-imidazo[4,3-d][1,2,3,5]tetrazine-8-carboxamide]	< 10	> 80	> 80	10 to 20
O=C(Nc1nccs1)c1ncn2c(=O)n(CCF)nnc12 [Compound I-7, 3-(2-fluoroethyl)-4-oxo-N-(1,3-thiazol-2-yl)-3H,4H-imidazo[4,3-d][1,2,3,5]tetrazine-8-carboxamide]	< 10	< 10	< 10	< 10
CCN(C)C(=O)c1ncn2c(=O)n(CCF)nnc12 [Compound I-14, N-ethyl-3-(2-fluoroethyl)-N-methyl-4-oxo-3H,4H-imidazo[4,3-d][1,2,3,5]tetrazine-8-carboxamide]	10 to 20	> 80	> 80	20 to 50
CCN(CC)C(=O)c1ncn2c(=O)n(CCF)nnc12 [Compound I-15, N,N-diethyl-3-(2-fluoroethyl)-4-oxo-3H,4H-imidazo[4,3-d][1,2,3,5]tetrazine-8-carboxamide]	10 to 20	> 80	> 80	50 to 80
CCCNC(=O)c1ncn2c(=O)n(CCF)nnc12 [Compound I-16, 3-(2-fluoroethyl)-4-oxo-N-propyl-3H,4H-imidazo[4,3-d][1,2,3,5]tetrazine-8-carboxamide]	< 10	> 80	> 80	10 to 20

Next, values leading:

IC50 [1] [µM]	IC50 [2] [µM]	IC50 [3] [µM]	IC50 [4] [µM]	SMILES
< 10	> 80	> 80	< 10	O=C(NCC(F)(F)F)c1ncn2c(=O)n(CCF)nnc12 [Compound I-3, 3-(2-fluoroethyl)-4-oxo-N-(2,2,2-trifluoroethyl)-3H,4H-imidazo[4,3-d][1,2,3,5]tetrazine-carboxamide]
< 10	> 80	> 80	< 10	CN(C)CCNC(=O)c1ncn2c(=O)n(CCF)nnc12 [Compound I-12, N-[2-(dimethylamino)ethyl]-3-(2-fluoroethyl)-4-oxo-3H,4H-imidazo[4,3-d][1,2,3,5]tetrazine-8-carboxamide hydrochloride]
< 10	> 80	> 80	10 to 20	O=C(c1ncn2c(=O)n(CCF)nnc12)N1CCC1 [Compound I-9, 8-(azetidine-1-carbonyl)-3-(2-fluoroethyl)-3H,4H-imidazo[4,3-d][1,2,3,5]tetrazin-4-one]
< 10	> 80	> 80	50 to 80	[2H]C([2H])([2H])N(Cc1ccccc1)C(=O)c1ncn2c(=O)n(CCF)nnc12 [Compound I-20, N-benzyl-3-(2-fluoroethyl)-N-(2H3)methyl-4-oxo-3H,4H-imidazo[4,3-][1,2,3,5]tetrazine-8-carboxamide]
< 10	> 80	> 80	50 to 80	[2H]C([2H])([2H])NC(=O)c1ncn2c(=O)n(CCF)nnc12 [Compound I-19, 3-(2-fluoroethyl)-N-(D3)methyl-4-oxo-3H,4H-imidazo[4,3-d][1,2,3,5]tetrazine-8-carboxamide]
< 10	> 80	> 80	10 to 20	CCNC(=O)c1ncn2c(=O)n(CCF)nnc12 [Compound I-2, N-ethyl-3-(2-fluoroethyl)-4-oxo-3H,4H-imidazo[4,3-d][1,2,3,5]tetrazine-8-carboxamide]
< 10	> 80	> 80	20 to 50	O=C(c1ncn2c(=O)n(CCF)nnc12)N1CCCC1 [Compound I-10, 3-(2-fluoroethyl)-8-(pyrrolidine-1-carbonyl)-3H,4H-imidazo[4,3-d][1,2,3,5]tetrazin-4-one]
